Assay results from the CheMixHub viscosity set.
“And” between values parts separate entries of the source, which are not always exact repeats. Equal values may be shown once.

What was measured:
[1] = xn = mol fraction of the nth substance listed

CC1(C)OC1C#N (stereo unspecified)
101 kPa
Conditions	viscosity [mPa·s]
293.15 K	1.337
298.15 K	1.223
303.15 K	1.1
313.15 K	0.938
323.15 K	0.79

CCCC(C)CO (stereo unspecified)
Conditions	viscosity
298.15 K, 101.33 kPa	5.304 mPa·s and 5.304 mPa·s

CCCCC(CC)COC(C)=O (stereo unspecified)
101.33 kPa
Conditions	viscosity [mPa·s]
293.15 K	1.471
303.15 K	1.234
313.15 K	1.051
323.15 K	0.906

CCCCCCCCCCBr
101 kPa
Conditions	viscosity [mPa·s]
297.75 K	2.35
303.95 K	2.08
313.55 K	1.75

CCCCCCCCCCCC(=O)OCC
viscosity
Conditions	293.15 K	303.15 K	308.15 K	313.15 K	323.15 K
100 kPa	3.374 mPa·s	–	2.43 mPa·s	2.203 mPa·s	1.827 mPa·s
101.33 kPa	3.374 mPa·s	2.695 mPa·s	2.43 mPa·s	2.203 mPa·s and 2.045 mPa·s	1.827 mPa·s

CCCCCCCCCCN
Conditions	viscosity [mPa·s]
303.15 K, 101 kPa	1.766

CCCCCCCC[P+](CC)(CC)CC.Cc1nc([N+](=O)[O-])c[n-]1
100 kPa
Conditions	viscosity [mPa·s]
293.15 K	920
298.15 K	623
303.15 K	435
308.15 K	313
313.15 K	231
318.15 K	174
323.15 K	135

CCCC[NH3+].O=[N+]([O-])[O-]
Conditions	viscosity [mPa·s]
298 K, 101 kPa	108.5

CCCN(CCC)CCC
101 kPa
Conditions	viscosity [mPa·s]
293.15 K	0.67
298.15 K	0.523
303.15 K	0.495
308.15 K	0.46
313.15 K	0.45
318.15 K	0.412
323.15 K	0.38

CCN(CC)c1ccccc1
viscosity
Conditions	298 K	298.15 K	303.15 K	308 K	308.15 K	313 K	313.15 K	318.15 K	323.15 K
101 kPa	1.919 mPa·s	1.93 mPa·s and 1.77 mPa·s and 1.93 mPa·s	1.72 mPa·s and 1.525 mPa·s	1.534 mPa·s	1.55 mPa·s	–	1.35 mPa·s	1.274 mPa·s	1.15 mPa·s and 1.07 mPa·s
101.3 kPa	1.933 mPa·s	–	–	1.547 mPa·s	–	1.41 mPa·s	–	–	–

CCOC(=O)CC(=O)OCC
101 kPa
Conditions	viscosity [mPa·s]
303.15 K	1.728
308.15 K	1.57
313.15 K	1.456

ClCCCCl
Conditions	viscosity [mPa·s]
298.15 K, 101 kPa	0.9443

Clc1ccc(Cl)c(Cl)c1
viscosity [mPa·s]
Conditions	303.15 K	313.15 K	318.15 K
100 kPa	–	1.472	1.329
101 kPa	1.785	1.472	1.329

FC(F)(Cl)C(F)(F)Cl
101 kPa
Conditions	viscosity [mPa·s]
293.35 K	0.3524
313.05 K	0.2877

CC(O)CN1CC[NH+](CC(C)O)CC1.CC(O)CN1CC[NH+](CC(C)O)CC1.O=S(=O)([O-])[O-] (stereo unspecified) + O
viscosity [mPa·s], [1], 101 kPa
Conditions	298.15 K	303.15 K	308.15 K	313.15 K	318.15 K	323.15 K
x1 = 0.0024	1.1	0.975	0.869	0.816	0.721	0.665
x1 = 0.00505	1.382	1.232	1.111	1.026	0.906	0.807
x1 = 0.00812	1.834	1.634	1.434	1.355	1.176	1.025
x1 = 0.0117	2.454	2.221	1.934	1.739	1.513	1.311
x1 = 0.0158	3.565	3.115	2.653	2.327	2.009	1.727
x1 = 0.0208	5.31	4.49	3.747	3.216	2.675	2.282

CCCC[NH3+].O=[N+]([O-])[O-] + O
Conditions	viscosity [mPa·s]
[1], 298.15 K, 101 kPa, x1 = 0.9022	65.05

Cl.N=C(N)N + O
viscosity [mPa·s], [1], 101.3 kPa
Conditions	x1 = 0.0018	x1 = 0.0045	x1 = 0.0089	x1 = 0.013	x1 = 0.0177
298.15 K	0.896	0.901	0.908	0.915	0.923
308.15 K	0.722	0.727	0.735	0.742	0.748
318.15 K	0.6	0.604	0.613	0.621	0.626

O=S(=O)([O-])[O-].[Mg+2] + O
viscosity [mPa·s], [1]
Conditions	308.15 K	313.15 K	323.15 K
101.3 kPa, x1 = 0.00112	0.74	0.6745	0.5642
101.3 kPa, x1 = 0.002247	0.7982	0.7215	0.605
101.3 kPa, x1 = 0.004484	0.8401	0.76	0.6392
101.3 kPa, x1 = 0.008927	0.942	0.8575	0.733
101.3 kPa, x1 = 0.0177	1.094	0.955	0.8368
101.33 kPa, x1 = 0.000905	0.7405	0.675	0.5648
101.33 kPa, x1 = 0.002718	0.7988	0.722	0.6054
101.33 kPa, x1 = 0.00453	0.8405	0.7605	–
101.33 kPa, x1 = 0.006344	0.889	0.8025	0.6695
101.33 kPa, x1 = 0.008159	0.942	0.858	0.7335

CCOC(=O)CC(=O)OCC + O=C1CCCC1
viscosity [mPa·s], [1], 101 kPa
Conditions	x1 = 0.0758	x1 = 0.1566	x1 = 0.2437	x1 = 0.3678	x1 = 0.4601	x1 = 0.5678	x1 = 0.6456	x1 = 0.7598	x1 = 0.8459	x1 = 0.9215
303.15 K	1.061	1.125	1.193	1.288	1.356	1.433	1.487	1.565	1.624	1.675
308.15 K	0.981	1.038	1.098	1.18	1.24	1.307	1.355	1.425	1.477	1.524
313.15 K	0.913	0.964	1.018	1.094	1.15	1.213	1.257	1.321	1.369	1.412

CCOC(=O)CC(=O)OCC + O=C1CCCCC1
viscosity [mPa·s], [1], 101 kPa
Conditions	x1 = 0.0713	x1 = 0.1285	x1 = 0.2155	x1 = 0.3058	x1 = 0.407	x1 = 0.5085	x1 = 0.6055	x1 = 0.7125	x1 = 0.8065	x1 = 0.9118
303.15 K	1.79	1.76	1.727	1.694	1.665	1.631	1.625	1.635	1.667	1.706
308.15 K	1.623	1.591	1.553	1.515	1.487	1.458	1.454	1.465	1.497	1.533
313.15 K	1.495	1.463	1.423	1.386	1.352	1.333	1.33	1.341	1.371	1.406

CCCCCCCCCCCCCC[P+](CCCCCC)(CCCCCC)CCCCCC.c1ccc2[n-]cnc2c1 + O=C=O
Conditions	viscosity [mPa·s]
[1], 298.15 K, 100 kPa, x2 = 0.545	388

CCN(CC)c1ccccc1 + O=S1(=O)CCCC1
viscosity [mPa·s], [1], 101 kPa
Conditions	x1 = 0.0999	x1 = 0.2008	x1 = 0.2993	x1 = 0.4001	x1 = 0.5001	x1 = 0.6027	x1 = 0.7023	x1 = 0.7999	x1 = 0.8991
303.15 K	8.19	6.62	5.41	4.44	3.7	3.09	2.63	2.26	1.96
308.15 K	7.26	5.88	4.81	3.96	3.3	2.77	2.36	2.04	1.77
313.15 K	6.45	5.25	4.31	3.54	2.96	2.49	2.13	1.84	1.6

CC[N+](CC)(CC)CC.O=C([O-])CCCC(=O)O + O=S1(=O)CCCC1
[1], 101 kPa, x1 = 0.23
Conditions	viscosity [mPa·s]
303.15 K	150.1
313.15 K	90
323.15 K	58.9

CCN(CC)c1ccccc1 + Oc1ccccc1
viscosity [mPa·s], [1], 101 kPa
Conditions	298.15 K	313.15 K	323.15 K
x1 = 0.0654	8.65	4.49	3.1
x1 = 0.1184	8.76	4.49	3.13
x1 = 0.139	8.47	4.35	3
x1 = 0.1758	8.2	4.17	2.87
x1 = 0.2126	7.75	3.95	2.77
x1 = 0.2997	6.44	3.49	2.48
x1 = 0.3868	5.27	3	2.17
x1 = 0.5	4.11	2.51	1.93
x1 = 0.5955	3.27	2.13	1.65
x1 = 0.6559	2.86	1.95	1.52
x1 = 0.7162	2.63	1.8	1.37
x1 = 0.8502	2.17	1.48	1.22

CCCCCCCCCCN + c1ccccc1
[1], 303.15 K, 101 kPa
Conditions	viscosity [mPa·s]
x2 = 0.2011	1.464
x2 = 0.3988	1.174
x2 = 0.4963	1.043
x2 = 0.5993	0.923
x2 = 0.7973	0.7207

CCCN(CCC)CCC + c1ccccc1
viscosity [mPa·s], [1], 101 kPa
Conditions	x1 = 0.01039	x1 = 0.02061	x1 = 0.03067	x1 = 0.04025	x1 = 0.04975	x1 = 0.05958	x1 = 0.06933	x1 = 0.07883	x1 = 0.08893
303.15 K	0.5599	0.5574	0.5552	0.5532	0.5515	0.5487	0.5467	0.5453	0.5429
313.15 K	0.4902	0.4877	0.4859	0.4836	0.4818	0.4793	0.4772	0.476	0.4738
